Test results taken from PMC10253456, “Investigating the Contribution of Major Drug-Metabolising Enzymes to Possum-Specific Fertility Control” (International Journal of Molecular Sciences, 2023).
Where a name gives a salt, the structure may show the parent alone. Read-outs that look alike come from different tables or passages of the source.

Tests used:
CYP3A [1] = assay: CYP3A catalytic activity (erythromycin N-demethylation) in possum liver microsomes; details: for Percent control catalytic activity at estimated IC50 / Percent control catalytic activity at estimated 2-fold IC50: possum liver microsomes, initial screen n=1; for Percent control catalytic activity at estimated IC50: compounds without reported IC50 at 1 µM; for Percent control catalytic activity at estimated 2-fold IC50: compounds without reported IC50 at 5 µM; for % of control (catalytic activity at 2-fold IC50) / Catalytic activity at 2-fold IC50 / % of control (catalytic activity at IC50): possum; for % of control (catalytic activity at 2-fold IC50) / Catalytic activity at 2-fold IC50: compound at estimated 2-fold IC50 (5 µM where none reported); for % of control (catalytic activity at IC50): compound at estimated IC50 (1 µM where none reported)
Method: (§1) Possums were collected from the Otago Peninsula (Dunedin) and the Okuti Valley, Banks Peninsula (Christchurch) in New Zealand in collaboration with the Otago Peninsula Biodiversity Group and Manaaki Whenua-Landcare Research, respectively. […] Possums were caged and humanely killed by a blow to the head, and the livers were harvested, snap-frozen in liquid nitrogen, and stored in a freezer at −80 °C until the preparation of microsomal fractions. […] Mice were euthanised by carbon dioxide inhalation and the livers were removed and microsomes prepared. […] The livers from avian species (mallards and a swan) were kindly donated by a local bird hunting group based in Dunedin, New Zealand. The livers from avian species were treated similarly to those mentioned above for the possum samples.
(§2) Microsomal preparation was carried out as previously described [76]. […] All procedures were performed at 0–4 °C. The liver samples were minced and homogenised in Buffer A (0.1 M Tris, 0.1 M potassium chloride, 1 mM EDTA, and 20 μM butylated hydroxytoluene, at pH = 7.4) using the Teflon-glass homogeniser (5–6 vertical passes). The samples were centrifuged at 10,000× g for 20 min. The supernatant was then transferred into another set of centrifuge tubes and spun at 100,000× g for 60 min. The pellet was resuspended in Buffer B (0.1 M potassium pyrophosphate, 1 mM EDTA, and 20 μM butylated hydroxytoluene, at pH = 7.4), homogenised, and recentrifuged at 100,000× g for 60 min. Finally, the pellet was homogenised in 1–2 mL of Buffer C (10 mM Tris-HCl, 1 mM EDTA, and 4% glycerol (v/v)), and stored at −80 °C until use. The protein concentration of the microsomes was determined using the bicinchoninic acid (BCA) method [77].
(§3) CYP3A catalytic activity was determined using the erythromycin N-demethylation activity assay, as described [78]. The reaction mixture (final volume of 1 mL and final protein concentration of 1 mg) contained 500 µL of microsomes in 0.1 M phosphate buffer (pH 7.4) and 400 µL of erythromycin buffer (0.45 mM), and 50 µL of the test compound was pre-warmed at 37 °C for 2 min. The reaction was initiated with 50 µL of 2.5 mM nicotinamide adenine dinucleotide phosphate (NADP^+) and incubated for 30 min at 37 °C. […] The tubes were vortexed and left for 5 min (at room temperature), and then 330 µL of saturated barium hydroxide was added. The tubes were further vortexed and left for 5 min (at room temperature). The tubes were then centrifuged at 1800× g for 10 min. To 830 µL of the supernatant, 330 µL of Nash reagent (30% (w/v) ammonium acetate, 0.4% (v/v) acetylacetone) was added and further incubated for 30 min at 60 °C. The blank tube contained 330 µL of Nash reagent and 830 µL of Milli-Q water. […] The CYP3A activities were determined in nmol/mg/min using standard curve data. Results presented are the mean ± SEM of 3 independent experiments performed in duplicate unless otherwise stated.

CYP3A [2] = assay: CYP3A catalytic activity (erythromycin N-demethylation) in mouse liver microsomes; details: for Percent control catalytic activity at estimated IC50 / Percent control catalytic activity at estimated 2-fold IC50: mouse liver microsomes, initial screen n=1; for Percent control catalytic activity at estimated IC50: compounds without reported IC50 at 1 µM; for Percent control catalytic activity at estimated 2-fold IC50: compounds without reported IC50 at 5 µM; for % of control (catalytic activity at 2-fold IC50) / Catalytic activity at 2-fold IC50 / % of control (catalytic activity at IC50): mouse; for % of control (catalytic activity at 2-fold IC50) / Catalytic activity at 2-fold IC50: compound at estimated 2-fold IC50 (5 µM where none reported); for % of control (catalytic activity at IC50): compound at estimated IC50 (1 µM where none reported)
Method: as §1, §2, §3

CYP3A [3] = details: avian
Method: as §1, §2, §3

[4] = compound at estimated 2-fold IC50 (5 µM where none reported)

| Compound | Percent control catalytic activity at estimated IC50 (CYP3A [1]) [percent control] | Percent control catalytic activity at estimated 2-fold IC50 (CYP3A [1]) [percent control] | Percent control catalytic activity at estimated IC50 (CYP3A [2]) [percent control] | Percent control catalytic activity at estimated 2-fold IC50 (CYP3A [2]) [percent control] | other results |
| --- | --- | --- | --- | --- | --- |
| CC(=O)O[C@H]1CC[C@@]2(C)C(=CC[C@@H]3[C@@H]2CC[C@]2(C)C(c4cccnc4)=CC[C@@H]32)C1 [Abiraterone Acetate] | 128 | 110 | 85 | 89 | – |
| O=C(O)/C=C/c1ccc(Cn2ccnc2)cc1 [Ozagrel] | 97 | 109 | 93 | 92 | – |
| O=[N+]([O-])c1cn(C(c2ccccc2)(c2ccccc2)c2ccccc2)cn1 [CDD3505] | 129 | 145 | 88 | 89 | – |
| C[C@@H]1O[C@@H](O[C@H]2[C@H](Oc3cc(O)c(C(=O)CCc4ccc(O)cc4)c(O)c3)O[C@H](CO)[C@@H](O)[C@@H]2O)[C@H](O)[C@H](O)[C@H]1O [Naringin Dihydrochalcone] | 111 | 87 | 92 | 96 | % of control (catalytic activity at 2-fold IC50) (CYP3A [1]): 92 % of control; Catalytic activity at 2-fold IC50 (CYP3A [1]): 0.33 ± 0.02 nmol/mg/min; % of control (catalytic activity at IC50) (CYP3A [1]): 106 % of control; % of control (catalytic activity at 2-fold IC50) (CYP3A [2]): 102 % of control; Catalytic activity at 2-fold IC50 (CYP3A [2]): 0.54 ± 0.07 nmol/mg/min; % of control (catalytic activity at IC50) (CYP3A [2]): 97 % of control |
| O=C1c2ccc(O)cc2C(=O)c2ccc(O)cc21 [2,6-Dihydroxyanthraquinone] | 97 | 102 | 106 | 128 | – |
| CC12CC3CC(C)(C1)CC(N)(C3)C2 [Memantine HCl] | 117 | 109 | 104 | 98 | – |
| O=C1C[C@@H](c2ccc(O)cc2)Oc2cc(O)cc(O)c21 [Naringenin] | 84 | – | 71 | – | % of control (catalytic activity at 2-fold IC50) (CYP3A [1]): 175 % of control; Catalytic activity at 2-fold IC50 (CYP3A [1]): 0.56 ± 0.02 nmol/mg/min; % of control (catalytic activity at 2-fold IC50) (CYP3A [2]): 240 % of control; Catalytic activity at 2-fold IC50 (CYP3A [2]): 1.09 ± 0.04 nmol/mg/min |
| CC(C)(C)C(O)/C(=C\c1ccc(Cl)cc1)n1cncn1 (stereo not shown) [Uniconazole] | 82 | 84 | 67 | 40 | – |
| CC(C)(C)C(O)/C=C/c1ccc2c(c1)OCO2 (stereo not shown) [Stiripentol] | 109 | 105 | 119 | 102 | – |
| COc1cc2c(cc1OC)[C@@H](Cc1ccc(Oc3cc(C[C@@H]4c5cc(OC)c(OC)cc5CCN4C)ccc3O)cc1)N(C)CC2 [Dauricine] | 108 | 117 | 113 | 112 | – |
| COc1cc2c(=O)c3c(O)c([C@@H]4O[C@H](CO[C@@H]5OC[C@](O)(CO)[C@H]5O)[C@@H](O)[C@H](O)[C@H]4O)c(O)cc3oc2cc1O [Polygalaxanthone III] | 102 | 108 | 92 | 94 | – |
| Cc1ccc(-c2c(-c3nn(C)c4ncnc(N5CC[C@H](N6CCCCC6)C5)c34)cnn2C)cc1 [PF-4981517] | 98 | 108 | 101 | 110 | – |
| O=C([O-])C(O)Cc1ccc(O)c(O)c1.[Na+] (stereo not shown) [Sodium Danshensu] | 116 | 118 | 98 | 107 | – |
| CCc1ccc(CCOc2ccc(CC3SC(=O)NC3=O)cc2)nc1 (stereo not shown) [Pioglitazone HCl] | 99 | 87 | 98 | 100 | – |
| CC(=O)c1ccccc1O [2'-Hydroxyacetophenone] | 108 | 105 | 112 | 80 | % of control (catalytic activity at 2-fold IC50) (CYP3A [3]; [4]): 102 % of control; Catalytic activity at 2-fold IC50 (CYP3A [3]; [4]): 0.36 ± 0.05 nmol/mg/min; % of control (catalytic activity at IC50) (CYP3A [3]; compound at estimated IC50 (1 µM where none reported)): 101 % of control; % of control (catalytic activity at 2-fold IC50) (CYP3A [1]): 102 % of control; Catalytic activity at 2-fold IC50 (CYP3A [1]): 0.29 ± 0.05 nmol/mg/min; % of control (catalytic activity at IC50) (CYP3A [1]): 120 % of control; % of control (catalytic activity at 2-fold IC50) (CYP3A [2]): 75 % of control; Catalytic activity at 2-fold IC50 (CYP3A [2]): 0.35 ± 0.05 nmol/mg/min; % of control (catalytic activity at IC50) (CYP3A [2]): 129 % of control |
| O=C(O)[C@H](O)Cc1ccc(O)c(O)c1 [Danshensu] | 113 | – | 97 | – | – |
| O=c1cc(-c2ccc(O)cc2)oc2cc(O)cc(O)c12 [Apigenin] | 94 | 121 | 116 | 106 | – |
| Cl.O=C(O)/C=C/c1ccc(Cn2ccnc2)cc1 [Ozagrel HCl] | 121 | 95 | 92 | 85 | – |
| CC[C@@H]([C@H](C)O)n1ncn(-c2ccc(N3CCN(c4ccc(OC[C@@H]5CO[C@@](Cn6cncn6)(c6ccc(F)cc6F)C5)cc4)CC3)cc2)c1=O [Posaconazole] | 93 | 92 | 101 | 74 | – |
| c1ccc2[nH]c(-c3cscn3)nc2c1 [Thiabendazole] | 94 | 92 | 85 | 95 | – |
| C=CCSCC=C [Diallyl sulfide] | 103 | 96 | 72 | 84 | – |
| O=C(O)c1ccc(-n2nc(-c3ccccc3O)nc2-c2ccccc2O)cc1 [Deferasirox] | 93 | – | 87 | – | – |
| COc1c(OC)c2occc2c2oc(=O)ccc12 [Pimpinellin] | 133 | – | 171 | – | – |
| CC(C)c1cc(C(C)C)c(CC(=O)NS(=O)(=O)Oc2c(C(C)C)cccc2C(C)C)c(C(C)C)c1 [Avasimibe] | – | – | 91 | 92 | – |
| O=c1c(O)c(-c2ccccc2)oc2cc(O)cc(O)c12 [Galangin] | 115 | 103 | 131 | 123 | – |
